Melting point data for 1 compound are collected here from patent publication US6476026B1, “Compounds and compositions as protease inhibitors” (Axys Pharmaceuticals, Inc., priority 1999, dated 2002).

A word on the melting point: it is the temperature of the solid-liquid transition. The compound `N#CCNC(=O)[C@H]1CCCN1C(=O)OCc1ccccc1` [Compound 50, benzyl 2R-cyanomethylcarbamoylpyrrolidine-1-carboxylate] showed a melting point of 135 to 136 °C.
